Key:
[1] = tested on: HEK-293; experiment: MTT cytotoxicity assay, HEK-293 normal cells; format: cell-based, human; settings: 24 h incubation
Method: (§1) Cytotoxicity studies were performed for all the synthesized quinoxaline compounds (7a–7g) using standard 3-(4,5-dimethylthiazol-2-yl)-2,5-diphenyltetrazolium bromide (MTT) assay beside a panel of cancer cell lines such as human epithelioid cervix carcinoma (HeLa), human colorectal adenocarcinoma cell line (Caco-2) and one normal human embryonic kidney cells (HEK-293) in triplicates (Table 3). […] It is noteworthy to mention that Compound 7a and 7g presented best cytoselectivity in HeLa and Caco-2 cell lines respectively. […]
(§2) In vitro cytotoxic activities (MTT assay):
(§3) The basic detection of cytotoxicity of anticancer compounds in vitro is MTT assay. The MTT proliferation assay is based on the reduction of the yellow MTT tetrazolium salt (3-[4,5-dimethylthiazol-2-yl]-2,5diphenyltetrazolium bromide) by mitochondrial dehydrogenases to form a purple MTT formazan crystals in viable cells. Synthesized compounds (7a-g) were prior dissolved in 0.1% DMSO and then serial dilution with medium and used in the experiment. Three different types of cancer cell lines were used in this experiment i.e., human Epitheloid Cervix Carcinoma (HeLa), human colon cancer cell line (Caco-2) and one normal kidney cell (HEK-293) were used in the assay. The cells were harvested at the log phase and it is cell counted using haemocytometer. Approximately 1 × 10^3 cells per well were seeded using all the cell lines. They were cultured in 100 μL of a DMEM media in 96-well plates and incubated at 37 °C for 24 hours under a 5% CO2 atmosphere. The cells were then washed with 1X PBS buffer and fresh media was added to the cells. The cells were then treated with different concentrations of the drugs (0.65-150 µM) in the volume of […] /well. Cisplatin has been used as a standard positive control drug. The control wells contains the same cell count of 1 × 10^3 cells per well of 100 μL medium containing 0.1% DMSO. After 24 h (for HeLa cell and HEK-293) and 72 h (for Caco-2), the medium was discarded and it is washed with 1X PBS and it was incubated with 100 µl of MTT reagent (1 mg/ml) for 4 h at 37°C.
(§4) Then the 96 well plate was placed on the shaker for 10 min and subsequently the absorbance was recorded by the ELISA reader at λ = 490 nm. The experiments were performed in […]
(§5) triplicate. […]

[2] = tested on: HeLa; experiment: MTT cytotoxicity assay, HeLa; format: cell-based, human; settings: for IC50: 24 h incubation; for SF (selectivity factor) HeLa: ratio of IC50 for HEK-293 to IC50 for HeLa
Method: as §1, §2, §3, §4, §5

[3] = MTT cytotoxicity assay, Caco-2; format: cell-based, human; settings: human, Caco-2, ratio of IC50 for HEK-293 to IC50 for Caco-2; read-out: SF (selectivity factor) Caco-2
Text: as §2
as §3, with “/well.” for “/well. Cisplatin has been used as a standard positive control drug. The control wells contains the same cell count of 1 × 10^3 cells per well of 100 μL medium containing 0.1% DMSO. After 24 h (for HeLa cell and HEK-293) and 72 h (for Caco-2), the medium was discarded and it is washed with 1X PBS and it was incubated with 100 µl of MTT reagent (1 mg/ml) for 4 h at 37°C.”
(§6) The control wells contains the same cell count of 1 × 10^3 cells per well of 100 μL medium containing 0.1% DMSO. After 24 h (for HeLa cell and HEK-293) and 72 h (for Caco-2), the medium was discarded and it is washed with 1X PBS and it was incubated with 100 µl of MTT reagent (1 mg/ml) for 4 h at 37°C.
as §4, §5

[4] = tested on: Caco-2; experiment: MTT cytotoxicity assay, Caco-2; format: cell-based, human; settings: Homo sapiens, Caco-2; 72 h incubation
Text: as §2
as §3, with “/well.” for “/well. Cisplatin has been used as a standard positive control drug. The control wells contains the same cell count of 1 × 10^3 cells per well of 100 μL medium containing 0.1% DMSO. After 24 h (for HeLa cell and HEK-293) and 72 h (for Caco-2), the medium was discarded and it is washed with 1X PBS and it was incubated with 100 µl of MTT reagent (1 mg/ml) for 4 h at 37°C.”
as §6, §4, §5

[5] = Fluorescence quantum yield in water; format: physicochemical; settings: 298 K, quinine sulphate as standard
Method: To know the absorption and emission behaviour of these synthesized compounds (7a–g), a standard concentration (3 × 10^−6 mol l^−1) in water has been used. In UV-vis spectra, λmax of all these compounds are observed at 320–330 nm due to π–π* transition (Fig. S1a ^†). The corresponding emission peaks are observed at 400–500 nm (Fig. S1b ^†). The emission of quantum yield (Φ) was calculated for all of the compounds (7a–g) using eqn (1) (Table S1 ^†). […]
2.6.2. Fluorescence study:
To know the emission property of all the synthesized complexes (7a-g), an initial investigation was performed using spectrofluorometric method in water by using absorption maximum as their excitation energy. Fluorescence quantum yield (Ф) of all the prepared compounds performed in water solution were calculated by employing the comparative William's method which involves the use of well-characterized standard with the known quantum yield value. Quinine sulphate was used as reference fluorophore excited at 350 nm and emission at 452 nm, quantum yield (ФR) = 0.50 in 1N H2SO4. The gradients of the plots are proportional to the quantum yield (Ф) of the studied system. The data obtained and quantum yield value calculated according to the equation (2): […]
Where, φ = Quantum yield, I = Peak Area, OD = absorbance at λmax, η = Refractive index of solvent and reference. Here, we have used Quinine Sulphate as a standard for calculating emission of quantum yield. […]

melting point [°C] | Φ, emission quantum yield [5] | SMILES | IC50 [1] [µM] | IC50 [2] [µM] | IC50 ([1]; Homo sapiens, HEK293) [µM] | selectivity ratio [3] | IC50 [4] [µM] | IC50 ([2]; Homo sapiens, HeLa) [µM] | SF (selectivity factor) HeLa [2]
– | – | N.N.[Cl][Pt][Cl] [Cisplatin, reference compound] | 50 ± 1.2 | 14.5 ± 0.8 | – | – | – | – | –
130 to 135 | 0.006 | c1ccc(-c2nc3ccccc3s2)c(OCc2nc3ccccc3nc2COc2ccccc2-c2nc3ccccc3s2)c1 [Compound 7a] | – | – | 120 ± 0.9 | 1.71 | 69.8 ± 0.8 | 73.1 ± 1.7 | 1.6
145 | 0.017 | Brc1ccc2nc(COc3ccccc3-c3nc4ccccc4s3)c(COc3ccccc3-c3nc4ccccc4s3)nc2c1 [Compound 7b] | – | – | 140 ± 1.4 | 1.28 | 109 ± 0.8 | > 100 | < 1.4
150 | 0.017 | Clc1ccc2nc(COc3ccccc3-c3nc4ccccc4s3)c(COc3ccccc3-c3nc4ccccc4s3)nc2c1 [Compound 7c] | – | – | 160 ± 2.1 | 2.13 | 75 ± 3.5 | 68.61 ± 0.2 | 2.3
135 to 139 | 0.04 | Fc1ccc2nc(COc3ccccc3-c3nc4ccccc4s3)c(COc3ccccc3-c3nc4ccccc4s3)nc2c1 [Compound 7d] | – | – | > 200 | > 2.17 | 92 ± 4.9 | 117 ± 5.4 | >1.7
– | 0.014 | Fc1cc2nc(COc3ccccc3-c3nc4ccccc4s3)c(COc3ccccc3-c3nc4ccccc4s3)nc2cc1Cl [Compound 7f] | – | – | > 200 | > 2 | > 100 | 44.3 ± 0.3 | >4.5

— paper PMC9061853, “Luminescent bis(benzo[d]thiazolyl)quinoxaline: facile synthesis, nucleic acid and protein BSA interaction, live-cell imaging, biopharmaceutical research and cancer theranostic application” (RSC Advances, 2019)
